{"source": "patent US9828344B2", "about": "“Inhibitors of the notch signaling pathway and secretion for use in medicine” (Leibniz-Institut für Altersforschung Fritz-Lipmann-Institut …, priority 2012, dated 2017)", "key": {"BIP and ATF6 [1]": {"system": "BIP and ATF6"}, "GBF1": {"target": "T1, GBF1 (Homo sapiens, UniProt Q92538)", "T1 construct": "expressed in transfected cells; host or cells: HeLa (transient)", "T1 sequence (Q92538 whole entry, species assumed)": "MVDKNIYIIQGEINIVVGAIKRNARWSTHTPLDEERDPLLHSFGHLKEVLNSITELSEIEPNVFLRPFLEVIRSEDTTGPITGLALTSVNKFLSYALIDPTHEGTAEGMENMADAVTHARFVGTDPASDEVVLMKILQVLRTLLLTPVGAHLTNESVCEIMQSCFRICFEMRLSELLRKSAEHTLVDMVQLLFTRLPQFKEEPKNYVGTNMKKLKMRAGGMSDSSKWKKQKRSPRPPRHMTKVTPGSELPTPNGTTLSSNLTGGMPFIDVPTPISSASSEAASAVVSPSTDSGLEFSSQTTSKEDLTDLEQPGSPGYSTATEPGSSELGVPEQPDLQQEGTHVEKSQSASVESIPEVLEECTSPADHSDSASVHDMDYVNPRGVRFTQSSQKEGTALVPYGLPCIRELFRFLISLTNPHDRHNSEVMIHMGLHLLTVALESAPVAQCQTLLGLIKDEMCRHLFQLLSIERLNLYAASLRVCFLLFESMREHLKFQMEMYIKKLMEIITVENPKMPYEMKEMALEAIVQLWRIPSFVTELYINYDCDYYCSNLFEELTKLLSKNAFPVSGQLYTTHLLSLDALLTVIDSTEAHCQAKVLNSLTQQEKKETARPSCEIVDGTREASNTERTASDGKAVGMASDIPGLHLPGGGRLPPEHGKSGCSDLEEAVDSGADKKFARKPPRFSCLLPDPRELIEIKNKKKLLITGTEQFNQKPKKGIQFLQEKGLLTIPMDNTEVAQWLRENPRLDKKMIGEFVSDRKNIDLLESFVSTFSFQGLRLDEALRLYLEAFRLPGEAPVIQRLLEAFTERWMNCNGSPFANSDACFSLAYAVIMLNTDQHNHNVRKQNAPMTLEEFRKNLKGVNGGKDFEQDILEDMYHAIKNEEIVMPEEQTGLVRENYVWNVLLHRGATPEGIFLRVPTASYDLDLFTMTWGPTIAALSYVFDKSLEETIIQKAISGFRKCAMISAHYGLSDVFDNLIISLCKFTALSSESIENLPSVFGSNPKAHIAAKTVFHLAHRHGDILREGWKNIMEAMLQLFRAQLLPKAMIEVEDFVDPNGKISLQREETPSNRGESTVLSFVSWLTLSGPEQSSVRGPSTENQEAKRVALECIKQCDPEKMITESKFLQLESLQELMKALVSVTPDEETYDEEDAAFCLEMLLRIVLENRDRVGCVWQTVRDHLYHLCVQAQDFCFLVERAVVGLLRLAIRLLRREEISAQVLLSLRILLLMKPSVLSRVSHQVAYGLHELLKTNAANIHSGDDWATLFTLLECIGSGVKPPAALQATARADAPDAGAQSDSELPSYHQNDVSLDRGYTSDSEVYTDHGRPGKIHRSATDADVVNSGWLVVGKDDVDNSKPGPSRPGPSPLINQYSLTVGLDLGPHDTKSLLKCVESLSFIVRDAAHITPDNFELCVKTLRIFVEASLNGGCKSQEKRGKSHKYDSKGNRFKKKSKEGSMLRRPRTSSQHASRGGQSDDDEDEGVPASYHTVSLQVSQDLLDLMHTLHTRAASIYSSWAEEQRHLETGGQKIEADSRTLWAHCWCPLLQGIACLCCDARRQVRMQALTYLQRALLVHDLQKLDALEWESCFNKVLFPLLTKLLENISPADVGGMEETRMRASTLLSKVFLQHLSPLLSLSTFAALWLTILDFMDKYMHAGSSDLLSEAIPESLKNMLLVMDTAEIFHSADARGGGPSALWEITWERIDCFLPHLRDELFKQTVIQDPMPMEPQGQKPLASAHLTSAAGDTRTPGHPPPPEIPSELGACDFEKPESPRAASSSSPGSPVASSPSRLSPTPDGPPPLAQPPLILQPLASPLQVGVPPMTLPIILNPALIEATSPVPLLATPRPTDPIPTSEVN", "test": "GBF1-GFP distribution in transfected HeLa cells", "format": "cell-based", "conditions": "FLI-06 10 μM, BFA 10 μg/ml, GCA 10 μM, 10 h"}, "KlothoS": {"system": "KlothoS", "test": "Secretion of KlothoS from transfected HeLa cells", "format": "cell-based", "conditions": "18 h", "protocol": "Thereafter cells were fixed and analyzed by immunofluorescence microscopy. […] After incubating with compounds for 18 h media were collected, cells lysed and both analyzed by Western Blotting using Klotho antibody. As loading control membranes were probed for actin. […] […] Tunicamycin (Tun) and 5 mM DTT were used as positive controls. […] Shown is the average of three independent experiments, error bars indicate standard deviation."}, "Golgi apparatus": {"system": "Golgi apparatus", "test": "Immunofluorescence of Golgi and early secretory pathway markers in HeLa cells", "format": "cell-based"}, "endocytosis": {"system": "endocytosis", "test": "Transferrin uptake assay", "format": "cell-based", "protocol": "FIG. 13: FLI-06 causes dispersal of early Golgi and TGN, but no tubulation of endosomes. Hela cells were incubated with DMSO or 10 iM FLI-06 or 1 ig/ml BFA for 18 h, fixed, stained with antibodies as indicated and imaged by fluorescence microscopy. Endosomes were visualized by adding Alexa555-labelled transferrin on ice and chasing for 15 min at 37° C. in the presence of indicated compounds. Arrows indicated tubulating endosomes, scalebar 10 im.\nFor the transferrin uptake assay cells were starved in serum free medium for 1 h at 37° C. Cells were then transferred on ice and medium was exchanged to serum free medium supplemented with 25 μg/ml AlexaFluor555-Transferrin conjugate (Molecular Probes) and test compounds. After 15 min on ice cells were incubated with pre-warmed serum-supplemented medium containing test compounds and incubated at 37° C."}, "BIP and ATF6 [2]": {"system": "BIP and ATF6", "test": "ER stress: BIP Western blot and ATF6 luciferase assay in HeLa cells", "conditions": "6 or 24 h"}, "YFP-GPI": {"system": "YFP-GPI", "test": "Surface transport of YFP-GPI in HeLa cells", "format": "cell-based", "conditions": "18 h; 1 ig/ml BFA or 10 iM FLI-06"}, "microtubuli or actin": {"system": "microtubuli or actin", "test": "Microtubule and actin integrity in HeLa cells", "format": "cell-based", "conditions": "4 h"}, "COPII vesicles": {"system": "COPII vesicles", "test": "In vitro COPII budding assay with permeabilized cells", "format": "biochemical", "conditions": "no FLI-06 pretreatment of cells"}, "NotchΔE-EGFP": {"system": "NotchΔE-EGFP", "test": "cells", "format": "cell-based", "excerpt": "To identify novel regulatory factors involved in Notch trafficking/processing an image-based high content screen was set up. […] NotchΔE-EGFP is a direct substrate for γ-secretase at the PM, and under physiological conditions is proteolytically processed to NICD-EGFP that translocates into the nucleus (for scheme see FIG. 1b), resulting in a strong nuclear EGFP-staining in steady state^15 (FIG. 1d). […] Importantly, changes in subcellular localization of the reporter are amenable to quantitation by automated microscopy^15. Accordingly, reporter fluorescence was determined in the nucleus (nuc) and in a ring around the nucleus (enuc), and the ratio enuc/nuc was evaluated (schematized in FIG. 1c). Thereafter, the assay design was functionally validated. […] The assay also reliably detected trafficking defects in the secretory pathway. […] Taken together, the assay was validated for reliably detecting concentration and time dependent changes in trafficking and processing of the Notch reporter.\nCells were seeded in 96-well plates at a density of 5000 cells/well in 100 μl medium. The next day, 100 μl medium containing the respective test compounds was added. Cells were incubated for 16 h, fixed and processed for automated microscopy. For the putative gamma-secretase inhibitors the enuc intensity was divided by the DAPT control and for the trafficking inhibitors normalized percentage inhibition against DAPT/DMSO controls of log 2 transformed nuc/enuc ratios were calculated. Relative activity values were read into “R” (http://www.r-project.org/) and EC50 estimates were calculated using four-parameter log-logistic fit with the package “drc”^51.\nImages were acquired on an ArrayScan VTi automated microscope (ThermoFisher) and numerical data were extracted with the Compartmental Analysis BioApplication of the bundled software suite. Compound screening raw data were collected at the FMP and data transformation was performed according to standard procedures (ref 17 and supp. Refs 6-7)."}, "ER": {"system": "ER", "test": "ER tubule-to-sheet live-cell imaging in COS cells (prlss-KDEL-mRFP)", "format": "cell-based", "conditions": "10 iM, 2 h", "protocol": "FIG. 7: FLI-06 induces ER sheet formation. A) COS cells transfected with prlss-KDEL-mRFP were incubated with 10 μM FLI-06 for indicated times and imaged by live-cell microscopy. The inserts are magnifications of the boxed areas. B) Images from cells treated as in A) were scored for the percentage of cells that lost most of their ER-tubules. For each time point 40-60 cells were counted. Data represent mean percentages, error bars SEM, n=3 independent experiments.\nFIG. 16: Only ER exit inhibitors convert ER tubules to sheets. COS cells plated on LabTek chambered coverslips were transiently transfected with the ER-marker prlss-KDEL-mRFP, incubated the next day for 2 h with 10 iM of indicated compounds and imaged by live-cell microscopy. […] FLI-06+CHX, cells were additionally incubated in 40 iM cycloheximide. Nife, nifedipine; nimo, nimodipine. Numbers refer to numbering in FIG. 5a.\nWe noted a morphological change of the ER upon FLI-06 incubation that was difficult to capture in fixed cells. Live-cell imaging was therefore performed in COS cells transfected with the ER marker prlss-KDEL-mRFP (supp. Ref 3) and FLI-06 was added for 120 min (FIG. 7a). After 120 min almost all cells had no detectable ER-tubules anymore and instead were filled with large sheet-like structures. […] To test whether the morphological change is related to the inhibition of ER exit, next our set of FLI-06 derivatives was tested. […] Rather, the ER-sheets are indicative for structural changes, maybe initiated within ERES, that inhibit ER exit."}}, "note": "Read-outs that look alike come from different tables or passages of the source.", "data": [{"smiles": "Fc1cc(F)c2c(c1)[C@H]1C=CC[C@H]1C(c1cccnc1)N2", "note": "(mixture of isomers) [GCA, Golgicide A, reference compound]", "values": [{"measurement": "ER-stress (BIP up-regulation, ATF6 luciferase)", "setting": "BIP and ATF6 [1]", "value": "caused ER-stress"}, {"measurement": "distribution of GBF1-GFP", "setting": "GBF1", "value": "recruited to the fragmented Golgi"}]}, {"smiles": "C[C@H]1CCC/C=C/[C@@H]2C[C@H](O)C[C@H]2[C@H](O)/C=C/C(=O)O1", "note": "[BFA, Brefeldin A, reference compound]", "values": [{"measurement": "secretion of KlothoS", "setting": "KlothoS", "value": "inhibit secretion of KlothoS"}, {"measurement": "time to loss of Golgi-like juxtanuclear βCOP staining", "setting": "Golgi apparatus; 1 ig/ml BFA or 10 iM FLI-06", "value": 10, "unit": "min"}, {"measurement": "distribution of GM130 and TGN46", "setting": "Golgi apparatus; 10 iM FLI-06 or 1 ig/ml BFA, 18 h", "value": "dispersal of the cis-Golgi marker GM130 and of the trans-Golgi network (TGN) marker TGN46"}, {"measurement": "hyperglycosylation of VSVG-EGFP", "setting": "Golgi apparatus; 4 h at 40° C. with cycloheximide", "value": "led to hyperglycosylation in the ER"}, {"measurement": "endocytosis of transferrin", "setting": "endocytosis", "value": "did not affect endocytosis"}, {"measurement": "ER-stress (BIP up-regulation, ATF6 luciferase)", "setting": "BIP and ATF6 [2]", "value": "caused ER-stress"}, {"measurement": "distribution of GBF1-GFP", "setting": "GBF1", "value": "recruited to the fragmented Golgi"}, {"measurement": "surface transport of YFP-GPI", "setting": "YFP-GPI", "value": "inhibit surface transport of YFP-GPI"}]}, {"smiles": "C=C1[C@@H](C)[C@H]2[C@H](Cc3ccccc3)NC(=O)[C@]23[C@H](OC(C)=O)/C=C/[C@@](C)(O)C(=O)[C@@H](C)C/C=C/[C@H]3[C@@H]1O", "note": "[Cytochalasin D, cytochalasin D, reference compound]", "values": [{"measurement": "actin polymerization and distribution", "setting": "microtubuli or actin; 2 iM cytochalasin D or 10 iM FLI-06", "value": "depolymerized f-actin"}]}, {"smiles": "CC1=C(C(=O)OC2CCCCC2)C(c2ccccc2)C2=C(CC(C)(C)CC2=O)N1", "note": "(stereo not shown) [FLI-25]", "values": [{"measurement": "COPII budding reaction, compound added directly to the assay", "setting": "COPII vesicles", "value": "neither 10 nor 100 μM of FLI-25 had an effect"}, {"measurement": "activity in NotchΔE-EGFP cells (enuc/nuc ratios)", "setting": "NotchΔE-EGFP; SAR and prior-art comparison, FIG. 5a/5b", "value": "inactive"}]}, {"smiles": "CCCCCOC(=O)C1=C(C)NC2=C(C(=O)CC(C)(C)C2)C1c1ccc([N+](=O)[O-])cc1", "note": "(stereo not shown) [FLI-27]", "values": [{"measurement": "ER tubule-to-sheets phenotype", "setting": "ER", "value": "elicited the tubule-to-sheets phenotype"}]}, {"smiles": "CC1=C(C(=O)OC2CCCCCC2)C(c2ccc([N+](=O)[O-])cc2)C2=C(CC(C)(C)CC2=O)N1", "note": "(stereo not shown) [FLI-28]", "values": [{"measurement": "ER tubule-to-sheets phenotype", "setting": "ER", "value": "elicited the tubule-to-sheets phenotype"}, {"measurement": "activity relative to compound 1 (FLI-06)", "setting": "NotchΔE-EGFP; enuc/nuc ratios in NotchΔE-EGFP cells", "value": "twice as active as compound 1"}]}, {"smiles": "O=S(=O)(NCCNC/C=C/c1ccc(Br)cc1)c1cccc2cnccc12", "note": "[H89, reference compound]", "values": [{"measurement": "COPII budding reaction, compound added directly to the assay", "setting": "COPII vesicles", "value": "completely blocked formation of COPII vesicles"}]}, {"smiles": "CC1=C(C(=O)OC2CCCCC2)C(c2ccccc2)C2=C(CC(C)(C)CC2=O)N1", "note": "(stereo not shown) [compound 5]", "values": [{"measurement": "ER tubule-to-sheets phenotype", "setting": "ER", "value": "elicited the tubule-to-sheets phenotype"}]}, {"smiles": "COC(=O)Nc1nc2ccc(C(=O)c3cccs3)cc2[nH]1", "note": "[nocodazole, reference compound]", "values": [{"measurement": "microtubule network", "setting": "microtubuli or actin; 1.5 ig/ml nocodazole or 10 iM FLI-06", "value": "almost completely disintegrated"}]}]}
